Data reported in patent US6313111A, “Substituted 6H-1,3,4-thiadiazine-2-amines, the use thereof as anaesthetising, cardiovascular and hypometabolic agents, and pharmaceutical composition containing them” (priority 1998, dated 2001).
Counter-ions that a name gives are not always drawn.

Legend:
[1] = lethal dose (LD16, LD50) in mice; assay type: in vivo, mice of the BALB line
[2] = rectal (body) temperature of mice measured with medicinal electrothermometer TREM-1; assay type: in vivo, mice of the BALB line
Method: In all cases tests were carried out on mice of the BALB line of 3-4 month age. […] In the case of water-soluble compounds, aqueous solutions of the test compounds were injected intraperitoneally (i.p.), while water-insoluble compounds were introduced orally (p.o.).
Rectal temperature changes (absolute magnitues in ° C.) were measured using a medicinal electrothermometer TREM-1 (Table 1). The rate of oxygen consumption was monitored by measuring concentration of oxygen in a closed testing unit with optic-acoustic gas analyser MN 5130. The data on oxygen consumption are given in percents relative to the starting content of oxygen taken as 100%. (Table 2).
Rectal temperature of mice was followed in dynamics after 5, 15, 30, 60, 120, 180, 240, 300, and 360 minutes (Table 3). […] The same decrease in temperature at 190 mg/kg dosage was reached after 15 minutes; in 1.5 hours it reached 22-25° C. and maintained this level over the next 5 hours, that is 13-17° C. below the initial value. After one day, body temperature was restored to the value of 94-96% of initial.

c1ccc(C2=NN=C(N3CCOCC3)SC2)cc1 [Compound 1, 2-Morpholino-5-phenyl-6H-1,3,4-thiadiazine, hydrobromide]
1/2 LD16, calculated ([1]; i.p.): 140 mg/kg
1/2 LD16, experimental ([1]; i.p.): 190 mg/kg
1/16 LD16 (lower end of dose range 1/16 LD16 -LD50) ([1]; i.p.): 10 mg/kg
LD50 ([1]; mouse, in vivo, ip, read-out: LD50 (upper end of dose range 1/16 LD16 -LD50)): 365 mg/kg
body temperature (T) ([2]; 10.0 mg/kg i.p., 0 min): 37.5 ± 0.2 °C
body temperature (T) ([2]; 10.0 mg/kg i.p., 10 min): 37.8 ± 0.1 °C
body temperature (T) ([2]; 10.0 mg/kg i.p., 20 min): 37.4 ± 0.2 °C
body temperature (T) ([2]; 10.0 mg/kg i.p., 30 min): 37.3 °C
body temperature (T) ([2]; 10.0 mg/kg i.p., 40 min): 37.5 ± 0.1 °C
body temperature (T) ([2]; 10.0 mg/kg i.p., 60 min): 37.5 ± 0.1 °C
body temperature (T) ([2]; 10.0 mg/kg i.p., 90 min): 37.4 ± 0.2 °C
body temperature (T) ([2]; 10.0 mg/kg i.p., 120 min): 36.9 ± 0.1 °C
body temperature (T) ([2]; 10.0 mg/kg i.p., 180 min): 36.9 ± 0.2 °C
body temperature (T) ([2]; 10.0 mg/kg i.p., 210 min): 36.4 °C
body temperature (T) ([2]; 10.0 mg/kg i.p., 240 min): 36.7 ± 0.2 °C
body temperature (T) ([2]; 10.0 mg/kg i.p., 270 min): 36.7 ± 0.2 °C
body temperature (T) ([2]; 10.0 mg/kg i.p., 300 min): 36.9 ± 0.1 °C
body temperature (T) ([2]; 10.0 mg/kg i.p., 330 min): 36.8 ± 0.2 °C
body temperature (T) ([2]; 10.0 mg/kg i.p., 390 min): 36.7 ± 0.2 °C
body temperature (T) ([2]; 35.0 mg/kg i.p., 0 min): 37.7 ± 0.2 °C
body temperature (T) ([2]; 35.0 mg/kg i.p., 10 min): 37.2 ± 0.2 °C
body temperature (T) ([2]; 35.0 mg/kg i.p., 20 min): 36.6 ± 0.4 °C
body temperature (T) ([2]; 35.0 mg/kg i.p., 30 min): 35.9 °C
body temperature (T) ([2]; 35.0 mg/kg i.p., 40 min): 36.6 ± 0.1 °C
body temperature (T) ([2]; 35.0 mg/kg i.p., 60 min): 37.0 ± 0.3 °C
body temperature (T) ([2]; 35.0 mg/kg i.p., 90 min): 37.3 ± 0.1 °C
body temperature (T) ([2]; 35.0 mg/kg i.p., 120 min): 37.1 ± 0.3 °C
body temperature (T) ([2]; 35.0 mg/kg i.p., 180 min): 36.9 ± 0.2 °C
body temperature (T) ([2]; 35.0 mg/kg i.p., 210 min): 36.6 ± 0.1 °C
body temperature (T) ([2]; 35.0 mg/kg i.p., 240 min): 36.9 ± 0.4 °C
body temperature (T) ([2]; 35.0 mg/kg i.p., 270 min): 36.8 ± 0.1 °C
body temperature (T) ([2]; 35.0 mg/kg i.p., 300 min): 36.9 ± 0.1 °C
body temperature (T) ([2]; 35.0 mg/kg i.p., 330 min): 37.2 ± 0.2 °C
body temperature (T) ([2]; 35.0 mg/kg i.p., 390 min): 37.1 ± 0.1 °C
body temperature (T) ([2]; 70.0 mg/kg i.p., 0 min): 37.5 ± 0.2 °C
body temperature (T) ([2]; 70.0 mg/kg i.p., 10 min): 36.2 ± 0.3 °C
body temperature (T) ([2]; 70.0 mg/kg i.p., 20 min): 35.4 ± 0.5 °C
body temperature (T) ([2]; 70.0 mg/kg i.p., 30 min): 34.5 °C
body temperature (T) ([2]; 70.0 mg/kg i.p., 40 min): 35.0 ± 0.9 °C
body temperature (T) ([2]; 70.0 mg/kg i.p., 60 min): 35.6 ± 0.6 °C
body temperature (T) ([2]; 70.0 mg/kg i.p., 90 min): 36.1 ± 0.2 °C
body temperature (T) ([2]; 70.0 mg/kg i.p., 120 min): 37.0 ± 0.2 °C
body temperature (T) ([2]; 70.0 mg/kg i.p., 180 min): 36.7 ± 0.6 °C
body temperature (T) ([2]; 70.0 mg/kg i.p., 210 min): 36.9 °C
body temperature (T) ([2]; 70.0 mg/kg i.p., 240 min): 37.0 ± 0.1 °C
body temperature (T) ([2]; 70.0 mg/kg i.p., 270 min): 36.6 ± 0.2 °C
body temperature (T) ([2]; 70.0 mg/kg i.p., 300 min): 37.0 ± 0.1 °C
body temperature (T) ([2]; 70.0 mg/kg i.p., 330 min): 37.2 ± 0.1 °C
body temperature (T) ([2]; 70.0 mg/kg i.p., 390 min): 37.1 ± 0.1 °C
time of maximum drop of body temperature ([2]; 140 mg/kg i.p.): 40 to 60 min
body temperature (T) ([2]; 140.0 mg/kg i.p., 0 min): 37.9 ± 0.1 °C
body temperature (T) ([2]; 140.0 mg/kg i.p., 10 min): 34.5 ± 0.2 °C
body temperature (T) ([2]; 140.0 mg/kg i.p., 20 min): 32.6 ± 0.4 °C
body temperature (T) ([2]; 140.0 mg/kg i.p., 30 min): 30.8 °C
body temperature (T) ([2]; 140.0 mg/kg i.p., 40 min): 30.2 ± 0.1 °C
body temperature (T) ([2]; 140.0 mg/kg i.p., 60 min): 30.0 ± 0.1 °C
body temperature (T) ([2]; 140.0 mg/kg i.p., 90 min): 31.5 ± 0.9 °C
body temperature (T) ([2]; 140.0 mg/kg i.p., 120 min): 33.6 ± 0.7 °C
body temperature (T) ([2]; 140.0 mg/kg i.p., 180 min): 35.2 ± 0.5 °C
body temperature (T) ([2]; 140.0 mg/kg i.p., 210 min): 36.1 °C
body temperature (T) ([2]; 140.0 mg/kg i.p., 240 min): 36.5 ± 0.2 °C
body temperature (T) ([2]; 140.0 mg/kg i.p., 270 min): 36.6 ± 0.2 °C
body temperature (T) ([2]; 140.0 mg/kg i.p., 300 min): 36.9 ± 0.1 °C
body temperature (T) ([2]; 140.0 mg/kg i.p., 330 min): 37.6 ± 0.2 °C
body temperature (T) ([2]; 140.0 mg/kg i.p., 390 min): 37.2 ± 0.2 °C
maximum drop of body temperature ([2]; 140 mg/kg i.p., after 40-60 minutes): 7-8 °C
body temperature (T) ([2]; 190 mg/kg (1/2 LD16) i.p., 5 min): 34.9 ± 0.0 °C
